Results: patent publication US20040126343A1, “Nail drug delivery” (priority 2002, published 2004)

How the values were obtained:
[1] = Penetration of radiolabeled model compounds into human nail plate, diffusion cell, twice daily topical dosing for 7 days; settings: for Increase of radioactivity in the ventral surface of the nail plate, carrier formulation compared with saline control / Radioactive Content, Dorsal/intermediate center / Radioactive Content, Ventral/intermediate center: twice daily for 7 days; for Increase of radioactivity in the ventral surface of the nail plate, carrier formulation compared with saline control: p<0.05; for Radioactive Content, Dorsal/intermediate center / Radioactive Content, Ventral/intermediate center / Percent Applied Dose, Cotton supporting bed / Percent Applied Dose, Dorsal/intermediate center / Percent Applied Dose, Remainder of nail / Percent Applied Dose, Subtotal (nail) / Percent Applied Dose, Surface Washing / Percent Applied Dose, Total (mass balance) / Percent Applied Dose, Ventral/intermediate center: mean (SD) of five tests
Experimental: Nail plates were collected from adult human cadavers and stored in a closed container at 0° C. Before each experiment, nail samples were gently washed with normal saline to remove any contamination, then rehydrated by placing them for 3 h on a cloth wetted with normal saline.
The test formulation contains 45% DMSO, 11% glycerin, 11% ethanol, 11% propylene glycol and water, as discussed in Hewitt P G, et al., 1998, Pharm Res 15:988-992. Normal saline (ABBOTT Laboratories, North Chicago, Ill.) was the control. […] A 5 μL aliquot was removed from each vial and radioactivity was measured in a Packard Liquid Scintillation Counter (model 1500).
A 5 μL dosing aliquot of each of the six test solutions was applied to the surface of a nail plate with a microsyringe twice daily, approximately 8 h apart for 7 days. Starting the second day, each morning before dosing, the surface of the nail was washed with cotton tips in a cycle, as follows: a dry tip, then a tip wetted with 50% skin cleansing liquid Ivory soap, then a tip wetted with distilled water, then another tip wetted with distilled water, then a final dry tip. This simulated a daily bathing. The washing samples from each cycle from each nail were pooled and collected by breaking off the cotton tip into scintillation glass vials. An aliquot of 5.0 mL methanol was added into each vial to extract test material. The radioactivity of each sample was measured in a liquid scintillation counter.
A Teflon® one-chamber diffusion cell (AMIE Systems) was used to hold each nail. To approximate physiological conditions, a small cotton ball wetted with 0.1 mL normal saline was placed in the chamber to serve as a “nail bed” and provide moisture for the nail plate. On day 5, 0.1 mL normal saline was injected through the inlet into the chamber to keep the cotton ball wet. A 1.5×1.5 cm aluminum sheet (0.24 mm thickness) with a hole in the center (1.0 cm diameter) was centered and glued to the top (dorsal) surface of the nail as a “frame” for the seal. The aluminum sheet frame flattens the curved nail and extends the surface area of the nail plate to fit the size of the top cover, so that potential leaking is prevented. The nail plate was placed on a ledge inside the receptor (1.0 cm in diameter and 0.5 cm high), sheet side up. The ventral (inner) surface of the nail was placed face down and rested on the wet cotton ball. Hydration of the nail plate and the supporting cotton bed was measured with a relative humidity/temperature meter (Corneometer CM 820; Courage & Khazaka, Cologne, Germany). Hydration was expressed digitally in arbitrary units (AU).
The rim of the cell base was covered with silicon gel and the top cover was set into the gel to prevent leaking. The metal holder was then tightly screwed into place.
The cells were placed on a platform in a large glass holding tank filled with saturated sodium phosphate solution. A digital relative humidity/temperature meter was used for monitoring room temperature, the chamber temperature, and humidity. The holding tank was then covered, thereby maintaining the cells at a constant humidity of 40%.
The sampling instrument consisted of a drill (Dremel™ model 2850; Dremel Inc., Racine, Wis.), a drill press (Dremel™), an adjustable stage (Fisher, Pittsburgh, Pa.) with an adjustable holder, and a high-speed cutter ( 5/16 inch or 7.9 mm in diameter).
After completion of the incubation phase, the nail plate was removed from the diffusion cell. The aluminum sheet frame was peeled off and placed in a glass scintillation vial. The nail plate was transferred to a clean Teflon® diffusion cell for processing. The nail plate was inverted so that the ventral (nail bed) surface faced up and the dorsal (outer) dosed surface faced down. A top cover was tightly screwed into place. The cell was placed in the middle of the holds on the adjustable stage.

[2] = cited from earlier work
[3] = cited from earlier work; remark: listed apart in the source
[4] = Test Carrier Formulation (45% DMSO)

## CC(=O)N1CCN(c2ccc(OCC3COC(Cn4ccnc4)(c4ccc(Cl)cc4Cl)O3)cc2)CC1 (stereo not shown) [Ketoconazole, ketoconazole]
[1]
  Increase of radioactivity in the ventral surface of the nail plate, carrier formulation compared with saline control: approximately 50%

## NC(N)=O [Urea, urea]
[1]; Saline Formulation
  Radioactive Content, Dorsal/intermediate center: 0.4 (0.3) μg Eq./g Nail Sample
  Radioactive Content, Ventral/intermediate center: 0.2 (0.09) μg Eq./g Nail Sample
[1]; [4]
  Radioactive Content, Dorsal/intermediate center: 0.8 (0.5) μg Eq./g Nail Sample
  Radioactive Content, Ventral/intermediate center: 0.35 (0.15) μg Eq./g Nail Sample
[1]
  Increase of radioactivity in the ventral surface of the nail plate, carrier formulation compared with saline control: approximately 50%
[2]
  pKa: 0.1

## O=C(O)Cc1ccccc1Nc1c(Cl)cccc1Cl [diclofenac sodium]
[3]; carrier formulation
  Permeability of human skin with the percutaneous drug-enhancing formulation: enhanced the permeability

## O=C(O)Cc1ccccc1Nc1c(Cl)cccc1Cl [diclofenac]
[3]; multiple dosing, four doses/day for 2 days, in the carrier, compared with a saline control
  Human skin penetration over the 48 h of study: continually increased

## O=C(O)c1ccccc1O [salicylic acid]
[1]; Saline Formulation
  Percent Applied Dose, Cotton supporting bed: 3.66 (2.02) Percent Applied Dose
  Percent Applied Dose, Dorsal/intermediate center: 47.10 (7.76) Percent Applied Dose
  Percent Applied Dose, Remainder of nail: 14.20 (5.10) Percent Applied Dose
  Percent Applied Dose, Subtotal (nail): 63.83 (9.54) Percent Applied Dose
  Percent Applied Dose, Surface Washing: 20.69 (5.97) Percent Applied Dose
  Percent Applied Dose, Total (mass balance): 88.18 (5.52) Percent Applied Dose
  Percent Applied Dose, Ventral/intermediate center: 2.53 (0.51) Percent Applied Dose
  Radioactive Content, Dorsal/intermediate center: 71.6 (10.6) μg Eq./g Nail Sample
  Radioactive Content, Ventral/intermediate center: 7.0 (1.1) μg Eq./g Nail Sample
[1]; [4]
  Radioactive Content, Dorsal/intermediate center: 16.3 (4.2) μg Eq./g Nail Sample
  Radioactive Content, Ventral/intermediate center: 10.2 (0.6) μg Eq./g Nail Sample
[1]; Test Carrier Formulation
  Percent Applied Dose, Cotton supporting bed: 2.23 (0.75) Percent Applied Dose
  Percent Applied Dose, Dorsal/intermediate center: 4.96 (2.13) Percent Applied Dose
  Percent Applied Dose, Remainder of nail: 3.87 (1.26) Percent Applied Dose
  Percent Applied Dose, Subtotal (nail): 15.87 (3.76) Percent Applied Dose
  Percent Applied Dose, Surface Washing: 70.86 (2.62) Percent Applied Dose
  Percent Applied Dose, Total (mass balance): 88.96 (2.29) Percent Applied Dose
  Percent Applied Dose, Ventral/intermediate center: 7.04 (2.67) Percent Applied Dose
[1]
  Increase of radioactivity in the ventral surface of the nail plate, carrier formulation compared with saline control: approximately 50%
